Laboratory results reported in BindingDB's records for doi:10.7270/Q2X065GM (Sanford-Burnham Center for Chemical Genomics, 2008).

Target: T1, Bcl-2-related protein A1 (Mus musculus, UniProt Q07440)
T1 sequence (Q07440 whole entry): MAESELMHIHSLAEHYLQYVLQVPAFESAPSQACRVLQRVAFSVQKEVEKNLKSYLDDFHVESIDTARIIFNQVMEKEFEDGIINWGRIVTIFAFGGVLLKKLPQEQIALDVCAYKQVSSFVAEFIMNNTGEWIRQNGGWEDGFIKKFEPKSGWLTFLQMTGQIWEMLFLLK
Experiment: Bfl-1 binding inhibitors, SAR follow-up, biochemical, fluorescence polarization (AID 1070)

IC50 [µM] | SMILES
12.6 | COCC=Nc1c(Cl)c(O)n(-c2ccc(Cl)c(Cl)c2)c1O [3-chloranyl-1-(3,4-dichlorophenyl)-4-(2-methoxyethylamino)pyrrole-2,5-dione]
1.7 | Cc1ccc(N=C2C(=O)N(c3ccc(C)cc3)C(=O)C2Cl)cc1 (configuration not stated) [3-chloranyl-1-(4-methylphenyl)-4-[(4-methylphenyl)amino]pyrrole-2,5-dione]
